Measured values taken from patent US20050260715A1, “Efficient methods for producing antimicrobial cationic peptides in host cells” (priority 1998, published 2005).
Like-named read-outs stand apart in the source and are kept apart here. Square brackets hold non-standard residues; d marks the D form. Ends that are not written are not given here. Peptide text beside a SMILES is read from it. * marks the point of attachment. hSer(lactone) = O=C1OCC[C@@H]1N*; hSer = N[C@@H](CCO)C(=O)O

Key:
[1] = tested on: A. calcoaceticus AC2
Procedure: (§1) In the present case, the antimicrobial activities of MBI-11B7CN, MBI-11B7HSL (homoserine lactone form) and MBI-11B7HS (homoserine form) were tested against various gram-negative and gram-positive strains, including antibiotic resistant strains. The assay was performed as described in “Methods for Dilution Antimicrobial Susceptibility Tests for Bacteria That Grow Aerobically-Fourth Edition; Approved Standard” NCCLS document M7-A4 (ISBN 1-56238-309-4) Vol. 17, No. 2 (1977).
(§2) The antimicrobial activities of the chemically synthesized MBI-11B7CN peptide and recombinant DNA synthesized MBI-11B7HSL (homoserine lactone form) and MBI-11B7HS (homoserine form) peptides were tested against various gram-negative and positive strains of bacteria, including antibiotic resistant strains. The Agarose Dilution Assay was performed as described in “Methods for Dilution Antimicrobial Susceptibility Tests for Bacteria That Grow Aerobically-Fourth Edition; Approved Standard” NCCLS document M7-A4 (ISBN 1-56238-309-4) Vol. 17, No 2 (1977).
(§3) The agarose dilution assay measures antimicrobial activity of peptides and peptide analogues, which is expressed as the minimum inhibitory concentration (MIC) of the peptides.
(§4) In order to mimic in vivo conditions, calcium and magnesium supplemented Mueller Hinton broth is used in combination with a low EEO agarose as the bacterial growth medium. Agarose, rather than agar, is used as the charged groups in agar prevent peptide diffusion through the media. The medium is autoclaved and then cooled to 50° C.-55° C. in a water bath before aseptic addition of anti-microbial solutions. The same volume of different concentrations of peptide solution are added to the cooled molten agarose, which is then poured to a depth of 3-4 mm.
(§5) The bacterial inoculum is adjusted to a 0.5 McFarland turbidity standard (PML Microbiological) and then diluted 1:10 before application on to the agarose plate. The final inoculum applied to the agarose is approximately 10^4 CFU in a 5-8 mm diameter spot. The agarose plates are incubated at 35° C.-37° C. for 16 to 20 hours.

[2] = tested on: E. cloacae ECL7
Procedure: as §1, §2, §3, §4, §5

[3] = tested on: E. coli ECO5
Procedure: as §1, §2, §3, §4, §5

[4] = tested on: E. faecalis EFS1
Procedure: as §1, §2, §3, §4, §5

[5] = tested on: E. faecalis EFS8
Procedure: as §1, §2, §3, §4, §5

[6] = tested on: K. pneumoniae KP1
Procedure: as §1, §2, §3, §4, §5

[7] = tested on: P. aeruginosa PA4
Procedure: as §1, §2, §3, §4, §5

[8] = tested on: S. aureus SA14
Procedure: as §1, §2, §3, §4, §5

[9] = tested on: S. aureus SA93
Procedure: as §1, §2, §3, §4, §5

[10] = tested on: S. epidermidis SE10
Procedure: as §1, §2, §3, §4, §5

[11] = tested on: S. maltophilia SMA2
Procedure: as §1, §2, §3, §4, §5

[12] = tested on: S. marcescens SMS3
Procedure: as §1, §2, §3, §4, §5

[13] = A. calcoaceticus, organism # AC2, source ATCC, agarose dilution
[14] = E. cloacae, organism # ECL7, source ATCC, agarose dilution
[15] = E. coli, organism # ECO5, source ATCC, agarose dilution
[16] = E. faecalis, organism # EFS1, source ATCC, agarose dilution
[17] = E. faecalis, organism # EFS8, source ATCC, agarose dilution
[18] = K. pneumoniae, organism # KP1, source ATCC, agarose dilution
[19] = P. aeruginosa, organism # PA4, source ATCC, agarose dilution
[20] = S. aureus, organism # SA14, source Bayer, agarose dilution
[21] = S. aureus, organism # SA93, source Bayer, agarose dilution
[22] = S. epidermidis, organism # SE10, source Chow, agarose dilution
[23] = S. maltophilia, organism # SMA2, source ATCC, agarose dilution
[24] = S. marcescens, organism # SMS3, source ATCC, agarose dilution

CC[C@H](C)[C@H](N)C(=O)N[C@@H](CC(C)C)C(=O)N[C@@H](CCCNC(=N)N)C(=O)N[C@@H](Cc1c[nH]c2ccccc12)C(=O)N1CCC[C@H]1C(=O)N[C@@H](Cc1c[nH]c2ccccc12)C(=O)N[C@@H](Cc1c[nH]c2ccccc12)C(=O)N1CCC[C@H]1C(=O)N[C@@H](Cc1c[nH]c2ccccc12)C(=O)N[C@@H](CCCNC(=N)N)C(=O)N[C@@H](CCCNC(=N)N)C(=O)N[C@@H](CCCCN)C(=O)N[C@H]1CCOC1=O [11B7HSL] (H-ILRWPWWPWRRK-{hSer(lactone)}; N-terminus assumed) gave an MIC [1, 13] of 4 µg/mL, an MIC [2, 14] greater than 64 µg/mL and an MIC [3, 15] of 8 µg/mL. For the same compound, the MIC [4, 16] was 1 µg/mL, the MIC [5, 17] was 16 µg/mL and the MIC [6, 18] was 8 µg/mL. For the same compound, the MIC [7, 19] was greater than 64 µg/mL, the MIC [8, 20] was 1 µg/mL and the MIC [9, 21] was 1 µg/mL. The MIC [10, 22] was 4 µg/mL, the MIC [11, 23] was 32 µg/mL and the MIC [12, 24] was greater than 64 µg/mL.

CC[C@H](C)[C@H](N)C(=O)N[C@@H](CC(C)C)C(=O)N[C@@H](CCCNC(=N)N)C(=O)N[C@@H](Cc1c[nH]c2ccccc12)C(=O)N1CCC[C@H]1C(=O)N[C@@H](Cc1c[nH]c2ccccc12)C(=O)N[C@@H](Cc1c[nH]c2ccccc12)C(=O)N1CCC[C@H]1C(=O)N[C@@H](Cc1c[nH]c2ccccc12)C(=O)N[C@@H](CCCNC(=N)N)C(=O)N[C@@H](CCCNC(=N)N)C(=O)N[C@@H](CCCCN)C(=O)N[C@@H](CCO)C(=O)O [11B7HS] (H-ILRWPWWPWRRK[hSer]-OH; N-terminus assumed) gave an MIC [1] of 2 µg/mL, an MIC ([2]; ECL7) greater than 64 µg/mL and an MIC ([3]; ECO5) of 32 µg/mL. It also gave an MIC ([4]; EFS1) of 2 µg/mL, an MIC ([5]; EFS8) of 32 µg/mL and an MIC ([6]; KP1) of 32 µg/mL. For the same compound, the MIC ([7]; PA4) was greater than 64 µg/mL, the MIC ([8]; SA14) was 2 µg/mL and the MIC ([9]; SA93) was 1 µg/mL. For the same compound, the MIC ([10]; SE10) was 8 µg/mL, the MIC ([11]; SMA2) was 64 µg/mL and the MIC ([12]; SMS3) was greater than 64 µg/mL.

ILRWPWWPWRRK-NH2 [11B7CN] gave an MIC [1, 13] of 2 µg/mL, an MIC [2, 14] greater than 64 µg/mL and an MIC [3, 15] of 8 µg/mL. The MIC [4, 16] was 2 µg/mL, the MIC [5, 17] was 16 µg/mL and the MIC [6, 18] was 8 µg/mL. For the same compound, the MIC [7, 19] was greater than 64 µg/mL, the MIC [8, 20] was 4 µg/mL and the MIC [9, 21] was 1 µg/mL. It also gave an MIC [10, 22] of 2 µg/mL, an MIC [11, 23] of 32 µg/mL and an MIC [12, 24] greater than 64 µg/mL.
